In article PMC9228270, “Design, Synthesis, In Silico Studies and Inhibitory Activity towards Bcr-Abl, BTK and FLT3-ITD of New 2,6,9-Trisubstituted Purine Derivatives as Potential Agents for the Treatment of Leukaemia” (Pharmaceutics, 2022):
Several values for one entry are separate records, joined by “and”; a condition that tells them apart may be missing. Equal values may be shown once. Read-outs that look alike come from different tables or passages of the source.

Key:
[1] = target: T1, BTK (Homo sapiens, UniProt Q06187); test: Recombinant kinase radioassay, BTK; assay type: biochemical
T1 construct: purchased ProQinase
Procedure: (§1) Recombinant kinase inhibition was measured using standard radioassay. Bcr-Abl1 and Cdk-2/cyclin E kinases were produced in-house, FLT3-ITD and BTK were purchased from ProQinase. The kinases were assayed with suitable substrates (500 µM peptide […] for Abl, 1 mg/mL histone H1 for Cdk-2, 100 µM poly (Glu:Tyr; 4:1)) in the presence of ATP (1 µM for Bcr-Abl, 15 µM for Cdk-2 and BTK), 0.05 µCi [γ-^33P]ATP and the test compound in reaction buffer (60 mM HEPES-NaOH, pH 7.5, 3 mM MgCl2, 3 mM MnCl2, 3 µM Na orthovanadate, 1.2 mM DTT, 2.5 µg/50 µL PEG20.000). The reactions were stopped by adding 3% aq. H3PO4. P-81 phosphocellulose (Whatman) was used to separate phosphorylated substrates. Kinase activity was quantified using a FLA-7000 digital image analyser.

[2] = target: T2, FLT3-ITD (Homo sapiens, UniProt P36888, ITD); test: Recombinant kinase radioassay, FLT3-ITD; assay type: biochemical
T2 sequence (P36888 27-993): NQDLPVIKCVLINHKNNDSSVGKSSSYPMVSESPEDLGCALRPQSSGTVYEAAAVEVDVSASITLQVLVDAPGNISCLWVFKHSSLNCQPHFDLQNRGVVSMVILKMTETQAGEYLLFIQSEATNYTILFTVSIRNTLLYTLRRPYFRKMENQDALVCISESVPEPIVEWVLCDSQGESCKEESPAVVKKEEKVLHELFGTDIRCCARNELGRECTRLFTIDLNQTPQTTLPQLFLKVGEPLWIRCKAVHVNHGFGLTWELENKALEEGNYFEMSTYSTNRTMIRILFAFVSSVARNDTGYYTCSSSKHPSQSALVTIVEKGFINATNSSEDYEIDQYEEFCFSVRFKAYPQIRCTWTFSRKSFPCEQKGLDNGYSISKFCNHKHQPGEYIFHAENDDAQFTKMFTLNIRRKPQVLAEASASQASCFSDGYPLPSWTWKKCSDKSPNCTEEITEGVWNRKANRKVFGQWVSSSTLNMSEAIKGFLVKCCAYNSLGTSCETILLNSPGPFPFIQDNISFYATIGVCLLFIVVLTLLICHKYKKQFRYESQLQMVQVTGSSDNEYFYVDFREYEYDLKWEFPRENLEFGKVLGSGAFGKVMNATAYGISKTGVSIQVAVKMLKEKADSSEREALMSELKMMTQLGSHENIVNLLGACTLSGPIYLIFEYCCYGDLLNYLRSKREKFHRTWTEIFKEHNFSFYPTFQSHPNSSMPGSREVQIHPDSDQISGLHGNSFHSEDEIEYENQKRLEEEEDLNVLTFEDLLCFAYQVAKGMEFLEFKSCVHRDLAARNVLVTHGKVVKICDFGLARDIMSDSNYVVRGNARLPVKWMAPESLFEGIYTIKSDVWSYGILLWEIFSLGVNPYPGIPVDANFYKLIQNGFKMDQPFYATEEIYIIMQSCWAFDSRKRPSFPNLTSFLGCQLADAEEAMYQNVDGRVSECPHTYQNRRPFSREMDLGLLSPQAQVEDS
Procedure: as §1

[3] = tested on: MV4-11; test: Cytotoxicity assay (resazurin), MV4-11; assay type: cell-based; conditions: Homo sapiens, 72 h, three independent experiments, range 0.1 to 25 µM
Procedure: (§2) Cytotoxicity assays for the purines were quantified using the resazurin method, a dye to measure redox reactions occurring in the mitochondria of live cells. The cells were treated by tested compounds (in triplicate, six different doses) for 72 h.

[4] = target: Bcr-Abl1 (Homo sapiens, UniProt P00519); test: Recombinant kinase radioassay, Abl; assay type: biochemical; conditions: ATP 1 µM, at least three independent experiments, range 0.01–100 µM
Procedure: as §1

[5] = target: T3, Cdk-2/cyclin E (Homo sapiens, UniProt P24941); test: Recombinant kinase radioassay, Cdk-2/cyclin E; assay type: biochemical; conditions: ATP 15 µM, at least three independent experiments, range 0.01–100 µM
T3 construct: made in house
Procedure: as §1

[6] = tested on: K562; test: Cytotoxicity assay (resazurin), K562; assay type: cell-based; conditions: Homo sapiens, 72 h, three independent experiments, range 0.1 to 25 µM
Procedure: as §2

[7] = tested on: HL-60; test: Cytotoxicity assay (resazurin), HL-60; assay type: cell-based; conditions: Homo sapiens, 72 h, three independent experiments, range 0.1 to 25 µM
Procedure: as §2

[8] = tested on: CEM; test: Cytotoxicity assay (resazurin), CEM; assay type: cell-based; conditions: Homo sapiens, CCRF-CEM, 72 h, three independent experiments, range 0.1 to 25 µM
Procedure: as §2

[9] = tested on: Ramos; test: Cytotoxicity assay (resazurin), Ramos; assay type: cell-based; conditions: Homo sapiens, 72 h, three independent experiments, range 0.1 to 25 µM
Procedure: as §2

[10] = -log IC50 in molar concentration, Table S3, read-out: Experimental pIC50, CoMFA BTK (converted)
[11] = -log IC50 in molar concentration, Table S3, read-out: Experimental pIC50, CoMFA FLT3 (converted)
[12] = recombinant kinase, radioassay, ATP 15 µM, at least three independent experiments, range 0.01–100 µM, read-out: IC50 BTK
[13] = recombinant kinase, radioassay, at least three independent experiments, range 0.01–100 µM, read-out: IC50 FLT3-ITD

Sequence of Bcr-Abl1 (P00519 27-1130): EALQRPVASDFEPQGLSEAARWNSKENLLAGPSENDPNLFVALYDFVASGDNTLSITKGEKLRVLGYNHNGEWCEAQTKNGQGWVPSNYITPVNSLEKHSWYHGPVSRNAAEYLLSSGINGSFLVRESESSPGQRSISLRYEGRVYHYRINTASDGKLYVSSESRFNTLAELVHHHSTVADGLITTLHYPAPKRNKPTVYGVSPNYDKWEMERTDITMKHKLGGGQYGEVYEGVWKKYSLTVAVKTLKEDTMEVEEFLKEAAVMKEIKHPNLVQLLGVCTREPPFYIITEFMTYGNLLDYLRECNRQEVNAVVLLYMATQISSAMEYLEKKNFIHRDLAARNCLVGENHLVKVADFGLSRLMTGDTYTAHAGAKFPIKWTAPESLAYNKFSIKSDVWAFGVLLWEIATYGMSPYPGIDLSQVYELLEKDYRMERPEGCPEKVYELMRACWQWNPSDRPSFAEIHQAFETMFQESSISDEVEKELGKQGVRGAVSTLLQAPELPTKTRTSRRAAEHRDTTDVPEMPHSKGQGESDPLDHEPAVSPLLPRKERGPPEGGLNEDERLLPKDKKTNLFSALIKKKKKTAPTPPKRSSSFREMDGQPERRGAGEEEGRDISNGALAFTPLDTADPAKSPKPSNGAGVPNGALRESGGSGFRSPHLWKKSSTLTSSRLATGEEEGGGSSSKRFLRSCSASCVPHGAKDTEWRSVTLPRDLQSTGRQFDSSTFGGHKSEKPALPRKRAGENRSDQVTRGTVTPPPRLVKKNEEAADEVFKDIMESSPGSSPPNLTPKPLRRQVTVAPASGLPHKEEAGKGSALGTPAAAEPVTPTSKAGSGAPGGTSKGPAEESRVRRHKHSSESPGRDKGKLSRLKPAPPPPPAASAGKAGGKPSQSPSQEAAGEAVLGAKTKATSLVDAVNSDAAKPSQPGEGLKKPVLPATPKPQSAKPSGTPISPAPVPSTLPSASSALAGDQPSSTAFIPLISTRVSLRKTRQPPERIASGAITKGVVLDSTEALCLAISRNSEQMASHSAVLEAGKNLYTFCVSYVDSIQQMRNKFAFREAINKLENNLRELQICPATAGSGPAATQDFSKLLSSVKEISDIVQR
T1 sequence (Q06187 whole entry): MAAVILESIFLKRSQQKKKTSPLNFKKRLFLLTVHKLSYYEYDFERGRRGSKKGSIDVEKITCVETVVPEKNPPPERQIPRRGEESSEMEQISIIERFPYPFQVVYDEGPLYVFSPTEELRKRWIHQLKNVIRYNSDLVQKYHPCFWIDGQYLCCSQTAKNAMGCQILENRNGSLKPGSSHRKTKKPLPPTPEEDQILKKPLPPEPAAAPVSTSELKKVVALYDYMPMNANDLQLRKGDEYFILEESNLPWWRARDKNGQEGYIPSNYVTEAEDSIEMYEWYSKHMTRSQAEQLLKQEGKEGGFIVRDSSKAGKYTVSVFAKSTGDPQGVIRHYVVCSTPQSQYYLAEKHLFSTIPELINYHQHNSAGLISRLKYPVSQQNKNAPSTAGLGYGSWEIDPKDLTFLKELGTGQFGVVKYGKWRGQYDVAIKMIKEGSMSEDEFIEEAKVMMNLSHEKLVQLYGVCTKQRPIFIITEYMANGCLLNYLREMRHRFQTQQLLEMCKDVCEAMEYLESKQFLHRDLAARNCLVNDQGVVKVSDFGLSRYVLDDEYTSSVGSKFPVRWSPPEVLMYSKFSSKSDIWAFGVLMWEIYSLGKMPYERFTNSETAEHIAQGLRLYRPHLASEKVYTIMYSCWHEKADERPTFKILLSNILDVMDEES

| Structure (SMILES) | IC50 [1, 10] [µM] | IC50 [2, 11] [µM] | GI50 [3] [µM] | IC50 [4] [µM] | IC50 [1, 12] | IC50 [2, 13] [µM] | IC50 [5] [µM] | GI50 [6] [µM] | GI50 [7] [µM] | GI50 [8] [µM] | melting point [°C] | GI50 [9] [µM] |
| --- | --- | --- | --- | --- | --- | --- | --- | --- | --- | --- | --- | --- |
| Clc1nc(Nc2ccccc2)c2ccn(CC3CC3)c2n1 [Compound 11] | 1.16 | 1.16 | – | – | – | – | – | – | – | – | – | – |
| CN1CCN(c2ccc(Nc3nc(Nc4cccc(C(F)(F)F)c4)c4ncn(CC5CC5)c4n3)cc2)CC1 [Compound 4d, 9-(Cyclopropylmethyl)-N^2-(4-(4-methylpiperazin-1-yl)phenyl)-N^6-(3-(trifluoromethyl)phenyl)-9H-purine-2,6-diamine] | – | – | 2.84 ± 0.29 | 1.78 ± 0.07 | 22.7 ± 2.88 µM | 1.8 | 15.5 ± 1.7 | 4.51 ± 0.36 | 0.72 ± 0.16 | 23.78 ± 0.08 | 134 to 135 | 3.83 ± 0.1 |
| Clc1nc(Cl)c2[nH]cnc2n1 [Compound 1] | 14.7 | 19.4 | – | – | – | – | – | – | – | – | – | – |
| CCCCCCn1cnc2c(Nc3ccc(F)c(F)c3)nc(Nc3ccc(N4CCN(C)CC4)cc3)nc21 [Compound 5i, N^6-(3,4-Difluorophenyl)-9-hexyl-N^2-(4-(4-methylpiperazin-1-yl)phenyl)-9H-purine-2,6-diamine] | – | – | 3.86 ± 1.08 | 34 ± 1.63 | < 0.58 µM and 0.46 µM | 2.74 | 47.3 ± 31.6 | > 25 | 3.91 ± 0.07 | > 25 | – | > 25 |
| CN1CCN(C(=O)c2ccc(Nc3nc(Nc4ccc(F)c(F)c4)c4ncn(CC5CC5)c4n3)cc2)CC1 [Compound 8c, (4-((9-(Cyclopropylmethyl)-6-((3,4-difluorophenyl)amino)-9H-purin-2-yl)amino)phenyl)(4-methylpiperazin-1-yl)methanone] | – | – | 1.52 ± 0.31 | 0.94 ± 0.22 | 2.73 ± 0.17 µM | 1.81 | 14.2 ± 1.24 | 6.07 ± 0.08 | 2.39 ± 0.89 | 20.7 ± 4.07 | 142 to 143 | 14.69 ± 0.02 |
| CN1CCN(c2ccc(Nc3nc(Nc4ccc(Cl)c(Cl)c4)c4ncn(CC5CC5)c4n3)cc2)CC1 [Compound 4n, 9-(Cyclopropylmethyl)-N^6-(3,4-dichlorophenyl)-N^2-(4-(4-methylpiperazin-1-yl)phenyl)-9H-purine-2,6-diamine] | – | – | 4.81 ± 1.54 | 0.07 ± 0.01 | 3.9 ± 0.05 µM | 2.53 | 12.9 ± 1.7 | 5.54 ± 1.56 | 1.52 ± 0.34 | 17.54 ± 0.08 | 132 to 133 | 8.02 ± 1.3 |
| Clc1nc(Cl)c2cc[nH]c2n1 [Compound 9] | 0.938 | 0.534 | – | – | – | – | – | – | – | – | – | – |
| CN1CCN(C(=O)c2ccc(N)cc2)CC1 [Compound 7] | 1.36 | 1.25 | – | – | – | – | – | – | – | – | – | – |
| CC(C)CCn1cnc2c(Nc3ccc(F)c(F)c3)nc(Nc3ccc(N4CCN(C)CC4)cc3)nc21 [Compound 5c, N^6-(3,4-Difluorophenyl)-9-isopentyl-N^2-(4-(4-methylpiperazin-1-yl)phenyl)-9H-purine-2,6-diamine] | – | – | 1.43 ± 0.56 | 2.28 ± 0.8 | 1.89 ± 0.17 µM | 0.79 | 62.5 ± 15 | 9.4 ± 0.78 | 1.59 ± 0.47 | 16.8 ± 3.34 | – | 8.87 ± 0.94 |
